Laboratory results reported in patent US6673745B2, “Herbicidal 3,5-difluoropyridines” (BASF Aktiengesellschaft, priority 1997, dated 2004).

Key:
Assay in all cases: pre-emergence herbicidal test
Type in all cases: in vivo
[1] = system: Abutilon theophrasti (ABUTH); conditions: second assessment 21 days after treatment
Procedure: (§1) To evaluate their herbicidal activity, compounds according to the invention are tested using a representative range of plants: […] The pre-emergence tests involve spraying a liquid formulation of the compound onto the soil in which the seeds of the plant species mentioned above has recently been sown. The soil used in the tests is a prepared horticultural loam. […] In these tests untreated sown soil are used as controls.

[2] = system: Alopecurus myosuroides (ALOMY); conditions: second assessment 21 days after treatment
Procedure: as §1

[3] = system: Ambrosia artemisiifolia (AMBEL); conditions: second assessment 21 days after treatment
Procedure: as §1

[4] = system: Glycine max (GLXMA)
Procedure: as §1

[5] = system: Ipomoea hederacea (IPOHE); conditions: second assessment 21 days after treatment
Procedure: as §1

[6] = system: Matricaria inodora (MATIN); conditions: second assessment 21 days after treatment
Procedure: as §1

[7] = system: Setaria viridis (SETVI); conditions: second assessment 21 days after treatment
Procedure: as §1

[8] = system: Triticum aestivum (TRZAW)
Procedure: as §1

[9] = system: Zea mays (ZEAMX)
Procedure: as §1

[10] = 0.0125 kg/ha, first assessment 10 days after treatment
[11] = 0.0125 kg/ha, second assessment 21 days after treatment
[12] = 0.025 kg/ha, first assessment 10 days after treatment
[13] = 0.025 kg/ha, second assessment 21 days after treatment
[14] = 0.100 kg/ha, first assessment 10 days after treatment
[15] = 0.100 kg/ha, second assessment 21 days after treatment
[16] = 0.400 kg/ha, first assessment 10 days after treatment
[17] = 0.400 kg/ha, second assessment 21 days after treatment

Cc1c(F)c(Oc2cccc(C(F)(F)F)c2)nc(-c2ccc(C(F)(F)F)cc2)c1F [Example 2]
8 (8 - Approaching complete kill): ABUTH rating ([1]; 0.400 kg/ha) | MATIN rating ([6]; 0.025 kg/ha) | MATIN rating ([6]; 0.100 kg/ha) | SETVI rating ([7]; 0.025 kg/ha)
7 (7 - Good herbicidal effect): GLXMA rating [4, 17] | IPOHE rating ([5]; 0.400 kg/ha) | MATIN rating ([6]; 0.0125 kg/ha)
3 (3 - Moderate effect): ABUTH rating ([1]; 0.100 kg/ha) | ALOMY rating ([2]; 0.025 kg/ha) | GLXMA rating [4, 14] | IPOHE rating ([5]; 0.100 kg/ha) | ZEAMX rating [9, 16] | ZEAMX rating [9, 17]
6 (6 - Herbicidal effect): GLXMA rating [4, 16]
9 (9 - Complete kill): ALOMY rating ([2]; 0.400 kg/ha) | AMBEL rating ([3]; 0.400 kg/ha) | MATIN rating ([6]; 0.400 kg/ha) | SETVI rating ([7]; 0.100 kg/ha) | SETVI rating ([7]; 0.400 kg/ha)
2 (2 - Slight effect): ALOMY rating ([2]; 0.0125 kg/ha) | GLXMA rating [4, 11] | GLXMA rating [4, 13] | IPOHE rating ([5]; 0.025 kg/ha) | ZEAMX rating [9, 14] | ZEAMX rating [9, 15]
1 (1 - Trace effect): ABUTH rating ([1]; 0.025 kg/ha) | GLXMA rating [4, 12] | IPOHE rating ([5]; 0.0125 kg/ha) | TRZAW rating [8, 10] | TRZAW rating [8, 12] | TRZAW rating [8, 14] | TRZAW rating [8, 15] | ZEAMX rating [9, 12] | ZEAMX rating [9, 13]
4 (4 - Injury): AMBEL rating ([3]; 0.0125 kg/ha) | GLXMA rating [4, 15] | TRZAW rating [8, 16]
5 (5 - Definite injury): AMBEL rating ([3]; 0.025 kg/ha) | AMBEL rating ([3]; 0.100 kg/ha) | SETVI rating ([7]; 0.0125 kg/ha) | TRZAW rating [8, 17]
0 (0 - No effect): ABUTH rating ([1]; 0.0125 kg/ha) | GLXMA rating [4, 10] | TRZAW rating [8, 11] | TRZAW rating [8, 13] | ZEAMX rating [9, 10] | ZEAMX rating [9, 11]
